Measurements published in ChEMBL document CHEMBL1201862, “PubChem BioAssay data set” (2004).
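1) Cells in 96-well plates. 2) Compound, 48 h, 5 concentrations. 3) Linear interpolation between surrounding doses. 4) Unreached endpoint = highest concentration. At the GI50, growth is halved.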 The source made the active and inactive calls. Cut-off read from the data, not from the text of the source: active = GI50 up to about 1.1 µM and inactive = higher.

Tests used:
Assay in all cases: inhibition of tumour cell growth, NCI panel, 48 h
RPMI-8226 = system: RPMI-8226
DU-145 = system: DU-145
T47D = system: T47D
A549 = system: A549
SW-620 = system: SW-620
HL-60 = system: HL-60
BT-549 = system: BT-549
K562 = system: K562
IGROV-1 = system: IGROV-1
HCT-15 = system: HCT-15
A498 = system: A498
MDA-MB-231 = system: MDA-MB-231
NCI-H23 = system: NCI-H23
UO-31 = system: UO-31
SK-OV-3 = system: SK-OV-3
M14 = system: M14
RXF 393 = system: RXF 393
Malme-3M = system: Malme-3M
MCF7 = system: MCF7
UACC-257 = system: UACC-257
CCRF-CEM = system: CCRF-CEM
SK-MEL-2 = system: SK-MEL-2
SF-539 = system: SF-539
SK-MEL-5 = system: SK-MEL-5
NCI-H460 = system: NCI-H460
OVCAR-8 = system: OVCAR-8
UACC-62 = system: UACC-62
SN12C = system: SN12C
786-0 = system: 786-0
COLO 205 = system: COLO 205
NCI/ADR-RES = system: NCI/ADR-RES
MOLT-4 = system: MOLT-4
U-251 = system: U-251
ACHN = system: ACHN
OVCAR-4 = system: OVCAR-4
SR = system: SR
HT-29 = system: HT-29
SF-268 = system: SF-268
HCT-116 = system: HCT-116
NCI-H226 = system: NCI-H226
NCI-H522 = system: NCI-H522
LOX IMVI = system: LOX IMVI
SF-295 = system: SF-295
MDA-MB-435 = system: MDA-MB-435
SK-MEL-28 = system: SK-MEL-28
SNB-19 = system: SNB-19
KM12 = system: KM12
TK-10 = system: TK-10
MDA-N = system: MDA-N
HOP-92 = system: HOP-92
Hs-578T = system: Hs-578T
HOP-62 = system: HOP-62
EKVX = system: EKVX
OVCAR-3 = system: OVCAR-3
PC-3 = system: PC-3
CAKI-1 = system: CAKI-1
OVCAR-5 = system: OVCAR-5
SNB-75 = system: SNB-75
HCC 2998 = system: HCC 2998

Measured: GI50

CCCCn1c(C)c(C(=O)CC)c(C(=O)NCCN2CCN(c3ccccc3Cl)CC2)c1C
inactive: RPMI-8226 16.3 µM | DU-145 20.1 µM | T47D 21.8 µM | A549 16.3 µM | SW-620 47.1 µM | HL-60 15.2 µM | BT-549 16 µM | K562 26.7 µM | IGROV-1 16.7 µM | A498 17.5 µM | MDA-MB-231 17.1 µM | NCI-H23 14.6 µM | UO-31 12.8 µM | SK-OV-3 19.4 µM | M14 17.6 µM | RXF 393 19.9 µM | Malme-3M 18.1 µM | MCF7 18.8 µM | UACC-257 13.4 µM | CCRF-CEM 55.1 µM | SK-MEL-2 16.7 µM | SF-539 18.1 µM | SK-MEL-5 14.1 µM | NCI-H460 15.3 µM | OVCAR-8 17.3 µM | UACC-62 15.8 µM | SN12C 16.1 µM | 786-0 16.1 µM | COLO 205 13.9 µM | NCI/ADR-RES 16 µM | MOLT-4 18.7 µM | U-251 16.6 µM | ACHN 16.4 µM | OVCAR-4 17.6 µM | SR 13.7 µM | HT-29 13.4 µM | SF-268 18.2 µM | HCT-116 14.3 µM | NCI-H226 20.3 µM | NCI-H522 17.4 µM | LOX IMVI 19.3 µM | SF-295 17.9 µM | MDA-MB-435 18.9 µM | SK-MEL-28 20.9 µM | SNB-19 15.8 µM | KM12 19.8 µM | TK-10 19.7 µM | MDA-N 16.2 µM | HOP-92 14.1 µM | Hs-578T 23.5 µM | HOP-62 20.2 µM | EKVX 16.3 µM | OVCAR-3 21.1 µM | PC-3 16.1 µM | CAKI-1 16.5 µM | OVCAR-5 17.5 µM
15.7 µM: HCT-15

C=CCOC1=C(OC(C)=O)C(C2COC(C)(C)O2)OC1=O (configuration not stated)
inactive: RPMI-8226 22.1 µM | DU-145 36.6 µM | T47D 18.5 µM | A549 24 µM | SW-620 16.5 µM | HL-60 19.6 µM | BT-549 27.4 µM | K562 18 µM | IGROV-1 31.6 µM | A498 > 100 µM | MDA-MB-231 17.1 µM | NCI-H23 17.8 µM | UO-31 18.6 µM | SK-OV-3 > 100 µM | M14 21.2 µM | RXF 393 21.2 µM | Malme-3M 18.8 µM | MCF7 16.7 µM | UACC-257 18.2 µM | CCRF-CEM 17.4 µM | SK-MEL-2 35.6 µM | SF-539 33.2 µM | SK-MEL-5 16.9 µM | NCI-H460 22 µM | OVCAR-8 38.8 µM | UACC-62 22.2 µM | SN12C 24.5 µM | 786-0 18.7 µM | COLO 205 20 µM | NCI/ADR-RES 31.5 µM | SNB-75 71.3 µM | MOLT-4 21.6 µM | U-251 26.5 µM | ACHN 17.9 µM | HCC 2998 38.2 µM | OVCAR-4 21.5 µM | HT-29 19.9 µM | SF-268 31.6 µM | HCT-116 17.6 µM | NCI-H226 95.3 µM | NCI-H522 2.19 µM | LOX IMVI 11.7 µM | SF-295 36 µM | MDA-MB-435 21.9 µM | SK-MEL-28 22.2 µM | SNB-19 > 100 µM | KM12 20.7 µM | TK-10 29.7 µM | MDA-N 29.7 µM | HOP-92 17.7 µM | Hs-578T 33.4 µM | HOP-62 > 100 µM | EKVX 20.1 µM | OVCAR-3 17.9 µM | PC-3 70 µM | CAKI-1 1.95 µM | OVCAR-5 17.5 µM
16.3 µM: HCT-15

C=C1C(=O)O[C@H]2C3OC3(C)CC/C=C(/C(=O)OC)[C@@H](OC(C)=O)[C@H](OC(=O)C3(C)OC3C)[C@H]12 (some centres not stated)
active: RPMI-8226 0.297 µM | T47D 0.989 µM | HL-60 0.196 µM | BT-549 1.04 µM | K562 0.299 µM | MCF7 1.12 µM | SR 0.186 µM
inactive: DU-145 13.6 µM | MDA-MB-231 2.07 µM | NCI/ADR-RES 3.73 µM | MDA-MB-435 2.05 µM | SNB-19 > 7.5 µM | MDA-N 1.65 µM | HOP-92 1.61 µM | Hs-578T 7.8 µM | PC-3 2.17 µM | OVCAR-5 2.94 µM
